Experimental data reported in US5508293A, “Pyridinecarboxyimidamide compounds and the use thereof” (Kirin Beer Kabushiki Kaisha, priority 1992, dated 1996).
One block for each compound: values may come before it.

How the values were obtained:
[1] = system: spontaneously hypertensive rats (SHR), mean blood pressure; experiment: Antihypertensive activities on spontaneously hypertensive rat (intravenously); type: in vivo, rat (male spontaneously hypertensive rats; conditions: iv, anesthetized male SHR, i.v., cumulative dosing, read-out: ED20 (the dose which lowered the blood pressure by 20%)
Description: Animals were anesthetized with urethane: α-chloralose.
A cannula was inserted into the carotid artery for measuring the mean blood pressure via a pressure transducer. A test compound was cumulatively administered through the cannula inserted into the femoral vein with an interval of 30 minutes. Variation of blood pressure was determined as the percentage change in the blood pressure before administration of the test compound, and the ED20 (the dose which lowered the blood pressure by 20%) was calculated from a dose-response curve.

[2] = system: spontaneously hypertensive rats (SHR), systolic blood pressure; experiment: Time course of antihypertensive activity in conscious SHR (oral), Compound No. 16; type: in vivo, rat (male spontaneously hypertensive rats; conditions: 3.0 mg/kg oral
Description: Time course of antihypertensive activity of 5-amino-N-cyano-N'-(2-phenethyl)pyridinecarboximidamide (Compound No. 16) was examined.
(§1) Systolic blood pressure (SBP) was measured with the tail cuff method.
The compound No. 16 was dissolved in an equivalent mixture of polyethylene glycol 200 and physiological saline, and administered orally with the aid of an oral probe. SBP was measured before administration and 1, 2, 4, 6, 8, 12 and 24 hours after administration of the compound. The results were expressed as the percentage change in SBP obtained before administration.

[3] = system: spontaneously hypertensive rats (SHR), systolic blood pressure; experiment: Antihypertensive effects on conscious SHR (oral), Compound Nos. 18 and 19; type: in vivo, rat (male spontaneously hypertensive rats; conditions: 3.0 mg/kg oral
Description: Antihypertensive effects of- 5-amino-N-cyano-N'-(2-nitroxyethyl)-3-pyridinecarboximidamide (N-cyano-N'-(2-nitroxyethyl)-5-(3-aminopyridine)carboximidamide; Compound No. 18) and N-cyano-5-ethylamino-N'-(2-nitroxyethyl)-3-pyridinecarboximidamide (N-cyano-N'-(2-nitroxyethyl)-5-[3-(N-ethylaminopyridine)]carboximidamide; Compound No. 19) were assessed by comparison with those of the methanesulfonate salt of N-cyano-N'-(2-nitroxyethyl)-3-pyridinecarboximidamide (compound described in Japanese Patent Laid-Open Publication No. 163061/1991) as a reference compound which is thought to be a well-known compound most similar to the compound of the present invention.
as §1
Each of the compound Nos. 18 and 19 was dissolved in an equivalent mixture of polyethylene glycol 200 and physiological saline, and the reference compound was dissolved in physiological saline. The compounds were administered orally with the aid of an oral probe. SBP was measured before administration and 1, 2, 4, 6, 8, 12 and 24 hours after administration of the compound. The results were expressed as the percentage change in SBP observed before administration.

rat aorta = experiment: Vasodilating effect in a rat aorta (relaxation of KCl-induced contraction); design: species or system rat (male Wistar rat); conditions: isolated rat thoracic aorta, 40 mM KCl; read-out: IC50 (concentration for inhibiting 50% of the tension induced by KCl)
Description: Physiological effect of the compound of the present invention was tested by the method with use of an isolated rat aorta.
Thoracic aorta was isolated from a male Wistar rat (body weight, 250-350 g) exsanguinated to death for obtaining ring preparations having a width of 3 mm. The preparations were suspended into an organ bath filled with the Krebs-Ringer solution through which a mixed gas of 95% O2 and 5% CO2 had been aerated at 37° C. A resting tension of 1 g was applied to the preparation. After the tension in the preparation was stabilized, the solution in the organ bath was exchanged with an equimolar solution containing 40 mM KC1 to increase the tension of the preparation. When the tension induced by KCl become stable, the test compound was cumulatively added to the organ bath to relax the preparation. Relaxation response was expressed as percentage inhibition of KCl-induced contraction, and the IC50 value (concentration for inhibiting 50% of the tension induced by KCl) was calculated from the average concentration-response curve by the Probit method.

beagles, blood pressure = experiment: Antihypertensive activity on anesthetized beagles (intravenously); type: in vivo, dog (beagles); conditions: for Antihypertensive activity (%): i.v.
Description: Antihypertensive activities of 5-amino-N-cyano-N'-[2-(2-chlorophenyl)ethyl]-3-pyridinecarboximidamide (N-cyano-N'-[2-(2-chlorophenyl)ethyl]-5-(3aminopyridine)carboximidamide; Compound No. 6) according to the present invention was assessed by comparison with those of N-cyano-N'-[2-(2-chlorophenyl)ethyl]-3-pyridinecarboximidamide which is thought to be a wellknown compound most similar to the compound of the present invention (see Japanese Patent Laid-Open Publication No. 163061/1991).
Experiments were carried out with beagles (body weight, 9.2-10.4 kg) under anesthetization by intravenous administering 30 mg/kg of pentobarbital sodium. A cannula was inserted into the right femoral artery for measuring blood pressure. […]

[4] = system: coronary blood flow (circumflex branch of the left coronary artery), beagles; experiment: Coronary dilating effect on beagles (coronary blood flow, anesthetized dog); type: in vivo; conditions: i.v., 10 Mg/Kg
Description: Coronary dilating effects of 5-amino-N-cyano-N'-(2-nitroxyethyl)-3-pyridinecarboximidamide (Compound No. 18) of the present invention was assessed by comparison with those of N-cyano-N'-(2-nitroxyethyl)-3-pyridinecarboximidamide methanesulfonic acid (compound described in Japanese Patent Laid-Open Publication No. 163061/1991) which is thought to be a well-known compound most similar to the compound of the present invention.
A dog (body weight, 8.3 kg) was anesthetized with 30 mg/kg of pentobarbital sodium intravenously. Respiration was maintained with room air through a cuffed endotracheal tube. The drug was administered through the femoral vein, and the coronary blood flow was measured by a probe attached to the circumflex branch of the left coronary artery.

SMILES: Cc1cncc(C(=NCCc2ccccc2Cl)NC#N)c1 [Compound No. 1, N-cyano-N'-[2-(2-chlorophenyl)ethyl]-5-methyl-3-pyridinecarboximidamide]
- ED20 [1]: 0.0171 mg/kg

SMILES: N#CN=C(NCCc1ccccc1)c1cncc(N)c1 [Compound No. 16, 5-amino-N-cyano-N'-(2-phenethyl)-3-pyridine-carboximidamide]
- decrease in blood pressure [2]: decrease in blood pressure was observed
- duration of the antihypertensive effect [2]: ≥ 12 h
- percentage change in SBP obtained before administration ([2]; 1 hour after administration): -45.3%
- percentage change in SBP obtained before administration ([2]; 2 hour after administration): -23.9%
- percentage change in SBP obtained before administration ([2]; 4 hour after administration): -42.3%
- percentage change in SBP obtained before administration ([2]; 6 hour after administration): -27.9%
- percentage change in SBP obtained before administration ([2]; 8 hour after administration): -22.8%
- percentage change in SBP obtained before administration ([2]; 12 hour after administration): -15.1%
- percentage change in SBP obtained before administration ([2]; 24 hour after administration): -8.2%
- ED20 [1]: 0.028 mg/kg

- IC50 (rat aorta): 10 µM
SMILES: CCNc1cncc(C(=NCCO[N+](=O)[O-])NC#N)c1 [Compound No. 19, N-cyano-5-ethylamino-N'-(2-nitroxyethyl)-3-pyridinecarboximidamide]
- decrease in blood pressure / antihypertensive effect [3]: decrease in blood pressure was observed
- duration of the antihypertensive effect [3]: ≥ 12 h
- percent change in SBP observed before administration of the compound ([3]; 1 hour after administration): -60.2%
- percent change in SBP observed before administration of the compound ([3]; 2 hour after administration): -47.2%
- percent change in SBP observed before administration of the compound ([3]; 4 hour after administration): -24.3%
- percent change in SBP observed before administration of the compound ([3]; 6 hour after administration): -23.9%
- percent change in SBP observed before administration of the compound ([3]; 8 hour after administration): -25.9%
- percent change in SBP observed before administration of the compound ([3]; 12 hour after administration): -27.7%
- percent change in SBP observed before administration of the compound ([3]; 24 hour after administration): -9.8%

SMILES: N#CNC(=NCCc1ccccc1Cl)c1cccnc1 [N-cyano-N'-[2-(2-chlorophenyl)ethyl]-3-pyridinecarboximidamide, reference compound]
- decrease in blood pressure (beagles, blood pressure; 10 and 30 μg/kg): decrease in blood pressure was observed
- recovery of the decrease in blood pressure after administration (beagles, blood pressure; both doses, 10 and 30 μg/kg): ≤ 10 min
- Antihypertensive activity (%) (beagles, blood pressure; dose 3 μg/kg, 0 min after dosage): 0.0%
- Antihypertensive activity (%) (beagles, blood pressure; dose 3 μg/kg, 1 min after dosage): 0.0%
- Antihypertensive activity (%) (beagles, blood pressure; dose 3 μg/kg, 2 min after dosage): 1.9%
- Antihypertensive activity (%) (beagles, blood pressure; dose 3 μg/kg, 3 min after dosage): 1.9%
- Antihypertensive activity (%) (beagles, blood pressure; dose 10 μg/kg, 0 min after dosage): 0.0%
- Antihypertensive activity (%) (beagles, blood pressure; dose 10 μg/kg, 1 min after dosage): -23.4%
- Antihypertensive activity (%) (beagles, blood pressure; dose 10 μg/kg, 2 min after dosage): -17.7%
- Antihypertensive activity (%) (beagles, blood pressure; dose 10 μg/kg, 3 min after dosage): -13.1%
- Antihypertensive activity (%) (beagles, blood pressure; dose 10 μg/kg, 5 min after dosage): -4.7%
- Antihypertensive activity (%) (beagles, blood pressure; dose 30 μg/kg, 0 min after dosage): 0.0%
- Antihypertensive activity (%) (beagles, blood pressure; dose 30 μg/kg, 1 min after dosage): -41.7%
- Antihypertensive activity (%) (beagles, blood pressure; dose 30 μg/kg, 2 min after dosage): -39.8%
- Antihypertensive activity (%) (beagles, blood pressure; dose 30 μg/kg, 3 min after dosage): -33.3%
- Antihypertensive activity (%) (beagles, blood pressure; dose 30 μg/kg, 5 min after dosage): -16.7%
- Antihypertensive activity (%) (beagles, blood pressure; dose 30 μg/kg, 7.5 min after dosage): -2.8%
- Antihypertensive activity (%) (beagles, blood pressure; dose 30 μg/kg, 10 min after dosage): -0.9%

SMILES: N#CNC(=NCCO[N+](=O)[O-])c1cccnc1 [Reference Compound, N-cyano-N'-(2-nitroxyethyl)-3-pyridinecarboximidamide, reference compound]
- decrease in blood pressure / antihypertensive effect [3]: antihypertensive effect was also observed
- duration of the antihypertensive effect [3]: about 6 hours
- percent change in SBP observed before administration of the compound ([3]; 1 hour after administration): -55.9%
- percent change in SBP observed before administration of the compound ([3]; 2 hour after administration): -41.5%
- percent change in SBP observed before administration of the compound ([3]; 4 hour after administration): -10.6%
- percent change in SBP observed before administration of the compound ([3]; 6 hour after administration): -6.8%
- increase of coronary blood flow [4]: increase in coronary blood flow was observed
- time for which the increase of coronary blood flow was retained [4]: ≤ 10 min
- percent change of coronary blood flow as compared with the blood flow before administration ([4]; 1 min after dosage): 219.0%
- percent change of coronary blood flow as compared with the blood flow before administration ([4]; 3 min after dosage): 42.9%
- percent change of coronary blood flow as compared with the blood flow before administration ([4]; 5 min after dosage): 14.3%
- percent change of coronary blood flow as compared with the blood flow before administration ([4]; 10 min after dosage): 0.0%

SMILES: CCc1cncc(C(=NCCc2ccccc2Cl)NC#N)c1 [compound 2, N-cyano-N'-[2-(2-chlorophenyl)ethyl]-5-ethyl-3-pyridinecarboximidamide]
- ED20 [1]: 0.007 mg/kg

SMILES: N#CNC(=NCCc1ccccc1Cl)c1cncc(CO)c1 [compound 3, N-cyano-N'-[2-(2-chlorophenyl)ethyl]-5-hydroxymethyl-3-pyridinecarboximidamide]
- ED20 [1]: 0.0087 mg/kg

SMILES: N#CNC(=NCCc1ccccc1Cl)c1ccc(N)nc1 [compound 5, 6-amino-N-cyano-N'-[2-(2-chlorophenyl)ethyl]-3-pyridinecarboximidamide]
- ED20 [1]: 0.0333 mg/kg

SMILES: CC(=O)Nc1cncc(C(=NC#N)NCCc2ccccc2Cl)c1 [compound 7, 5-acetamide-N-cyano-N'-[2-(2-chlorophenyl)-ethyl]-3-pyridinecarboximidamide]
- ED20 [1]: 0.0123 mg/kg

SMILES: CCNc1cncc(C(=NCCc2ccccc2Cl)NC#N)c1 [compound 10, N-cyano-N'-[2-(2-chlorophenyl)ethyl]-5-ethylamino-3-pyridinecarboximidamide]
- ED20 [1]: 0.0079 mg/kg

- IC50 (rat aorta): 2.7 µM
SMILES: N#CNC(=NCCO[N+](=O)[O-])c1ccc(N)nc1 [compound 20, 6-amino-N-cyano-N'-(2-nitroxyethyl)-3-pyridinecarboximidamide]

- IC50 (rat aorta): 4.6 µM
SMILES: CCN(CC)c1ccc(C(=NCCO[N+](=O)[O-])NC#N)cn1 [compound 21, N-cyano-6-diethylamino-N'-(2-nitroxyethyl)-3-pyridinecarboximidamide]
